# Data from ChEMBL document CHEMBL6083210, “Exploring apoptotic induction of malabaricone A in triple-negative breast cancer cells: an acylphenol phyto-entity isolated from the fruit rind of Myristica malabarica Lam” (RSC Med Chem, 2024).
# pIC50: −log10 of the molar value. Calls of active or inactive are those of the source. The calls are words filed in the database; no cut-off is given here.
# How the values were obtained:
# MDA-MB-231 [1] = test: Induction of apoptosis in human MDA-MB-231 cells assessed as dead cells by measuring pink coloration at 6 to 10 uM incubated for 24 hrs by APO staining based analysis; format: functional, cell-based; details: dose 6-10 µM
# MDA-MB-231 [2] = test: Induction of apoptosis in human MDA-MB-231 cells assessed as necrotic cells at 8 uM incubated for 24 hrs by FITC annexin V staining based analysis (reference value: 0.8%); format: functional
# MDA-MB-231 [3] = test: Induction of apoptosis in human MDA-MB-231 cells assessed as viable cells at 10 uM incubated for 24 hrs by FITC annexin V staining based analysis (reference value: 90.5%); format: functional; details: read-out: Activity
# MDA-MB-231 [4] = test: Antiproliferative activity against human MDA-MB-231 cells assessed as reduction in cell viability at 1 to 50 uM by MTT assay; format: functional, cell-based; details: dose 1-50 µM, time 12-48 hrs
# MDA-MB-231 [5] = test: Induction of morphological changes in human MDA-MB-231 cells assessed as appearance of spherical shaped cell at 6 to 10 uM measured 24 hrs by EtBr-AO Live dead Assay; format: functional, cell-based; details: dose 6-10 µM
# MDA-MB-231 [6] = test: Induction of cell cycle arrest in human MDA-MB-231 cells assessed as accumulation of cells at S phase at 6 uM incubated for 24 hrs by PI staining based flow cytometry analysis (reference value: 12.0%); format: functional
# MDA-MB-231 [7] = test: Induction of apoptosis in human MDA-MB-231 cells assessed as early apoptotic cells at 6 uM incubated for 24 hrs by FITC annexin V staining based analysis (reference value: 1.4%); format: functional
# MDA-MB-231 [8] = test: Upregulation of Bid protein level in human MDA-MB-231 cells at 8 uM measured after 24 hrs; format: functional, cell-based
# MDA-MB-231 [9] = test: Induction of cell cycle arrest in human MDA-MB-231 cells assessed as accumulation of cells at G2 phase at 8 uM incubated for 24 hrs by PI staining based flow cytometry analysis (reference value: 7.9%); format: functional
# MDA-MB-231 [10] = test: Induction of apoptosis in human MDA-MB-231 cells assessed as viable cells at 8 uM incubated for 24 hrs by FITC annexin V staining based analysis (reference value: 90.5%); format: functional; details: read-out: Activity
# MCF-10A = test: Antiproliferative activity against human MCF-10A cells assessed as reduction in cell viability incubated for 24 hrs by MTT assay; format: functional, cell-based
# MDA-MB-231 [11] = test: Induction of cell cycle arrest in human MDA-MB-231 cells assessed as accumulation of cells at Sub G0 phase at 8 uM incubated for 24 hrs by PI staining based flow cytometry analysis (reference value: 5.3%); format: functional
# MDA-MB-231 [12] = test: Downregulation of cIAP-2 protein level in human MDA-MB-231 cells at 8 uM measured after 24 hrs; format: functional, cell-based
# MDA-MB-231 [13] = test: Induction of cell cycle arrest in human MDA-MB-231 cells assessed as accumulation of cells at Sub G0 phase at 6 uM incubated for 24 hrs by PI staining based flow cytometry analysis (reference value: 5.3%); format: functional
# MDA-MB-231 [14] = test: Induction of apoptosis in human MDA-MB-231 cells assessed as fold increase in caspase 3 level at 8 uM by fluorometric assay; format: functional
# MDA-MB-231 [15] = test: Upregulation of caspase 8 protein level in human MDA-MB-231 cells at 8 uM measured after 24 hrs; format: functional, cell-based
# MDA-MB-231 [16] = test: Induction of apoptosis in human MDA-MB-231 cells assessed as increase in green fluorescence at 6 to 10 uM by acridine orange and ethidium bromide dual staining based analysis; format: functional, cell-based; details: dose 6-10 µM, time 12-48 hrs
# MDA-MB-231 [17] = test: Induction of cell cycle arrest in human MDA-MB-231 cells assessed as accumulation of cells at G1 phase at 8 uM incubated for 24 hrs by PI staining based flow cytometry analysis (reference value: 74.2%); format: functional
# MDA-MB-231 [18] = test: Downregulation of cyclin A2 level in human MDA-MB-231 cells at 6 to 10 uM by Western blot analysis; format: functional, cell-based; details: dose 6-10 µM
# SK-BR-3 = test: Antiproliferative activity against human SK-BR-3 cells assessed as reduction in cell viability incubated for 24 hrs by MTT assay; format: functional, cell-based; details: SK-BR-3, 24 h
# MDA-MB-231 [19] = test: Induction of apoptosis in human MDA-MB-231 cells assessed as late apoptotic cells at 8 uM incubated for 24 hrs by FITC annexin V staining based analysis (reference value: 7.3%); format: functional
# MDA-MB-231 [20] = test: Induction of apoptosis in human MDA-MB-231 cells assessed as necrotic cells at 6 uM incubated for 24 hrs by FITC annexin V staining based analysis (reference value: 0.8%); format: functional
# MDA-MB-231 [21] = test: Induction of apoptosis in human MDA-MB-231 cells assessed as viable cells at 6 uM incubated for 24 hrs by FITC annexin V staining based analysis (reference value: 90.5%); format: functional; details: read-out: Activity
# MDA-MB-231 [22] = test: Antiproliferative activity against human MDA-MB-231 cells assessed as reduction in cell viability measured after 12 to 48 hrs by MTT assay; format: functional, cell-based; details: dose 1-50 µM, time 12-48 hrs
# MDA-MB-231 [23] = test: Downregulation of livin protein level in human MDA-MB-231 cells at 8 uM measured after 24 hrs; format: functional, cell-based
# MDA-MB-231 [24] = test: Induction of morphological changes in human MDA-MB-231 cells assessed as membrane blebbing at 6 to 10 uM measured 24 hrs by EtBr-AO Live dead Assay; format: functional, cell-based; details: dose 6-10 µM
# MDA-MB-231 [25] = test: Upregulation of p53 protein level in human MDA-MB-231 cells at 8 uM measured after 24 hrs; format: functional, cell-based
# MDA-MB-231 [26] = test: Downregulation of XIAP protein level in human MDA-MB-231 cells at 8 uM measured after 24 hrs; format: functional, cell-based
compound,measurement,setting,value
O=C(CCCCCCCCc1ccccc1)c1c(O)cccc1O [MALABARICONE A],Activity,MDA-MB-231 [1],Active
same,Activity,MDA-MB-231 [2],8.05%
same,viability at 10 µM,MDA-MB-231 [3],32.4%
same,Activity,MDA-MB-231 [4],Time-dependent-effect
same,Activity,MDA-MB-231 [5],Active
same,Activity,MDA-MB-231 [6],9.7%
same,Activity,MDA-MB-231 [7],7.3%
same,Activity,MDA-MB-231 [8],Active
same,Activity,MDA-MB-231 [9],2.9%
same,viability at 8 µM,MDA-MB-231 [10],50.2%
same,pIC50,MCF-10A,4.16
same,Activity,MDA-MB-231 [11],59.7%
same,Activity,MDA-MB-231 [12],Active
same,Activity,MDA-MB-231 [13],48.7%
same,fold change (FC),MDA-MB-231 [14],8.9
same,Activity,MDA-MB-231 [15],Active
same,Activity,MDA-MB-231 [16],Time-dependent-effect
same,Activity,MDA-MB-231 [17],27.5%
same,Activity,MDA-MB-231 [18],Active
same,pIC50,SK-BR-3,5.08
same,Activity,MDA-MB-231 [19],35.25%
same,Activity,MDA-MB-231 [20],3.85%
same,viability at 6 µM,MDA-MB-231 [21],68.5%
same,Activity,MDA-MB-231 [22],Dose-dependent-effect
same,Activity,MDA-MB-231 [23],Active
same,Activity,MDA-MB-231 [24],Active
same,Activity,MDA-MB-231 [25],Active
same,Activity,MDA-MB-231 [26],Active
